# Assay results as given in patent US20140249084A1, “PTH-CONTAINING THERAPEUTIC/PROPHYLACTIC AGENT FOR OSTEOPOROSIS, CHARACTERIZED IN THAT PTH IS ADMINISTERED ONCE A WEEK IN A UNIT DOSE OF 100 TO 200 UNITS” (ASAHI KASEI PHARMA CORPORATION, priority 2009, published 2014).
# What was measured:
# [1] = tested on: patients diagnosed with primary osteoporosis; experiment: New vertebral fractures by x-ray (method of Genant), Working Example 1; assay type: in vivo, human; details: for Incidence (%) / No. of fractures / No. with fractures: new vertebral fractures every 26 weeks; for No. of vertebral fractures / No. with fractures (persons): new vertebral fractures
# Method: Both the 5 and 100 unit groups were administered two tablets of a calcium agent (containing 500 mg of precipitated calcium carbonate [200 mg as calcium] per tablet) once a day.
# The osteoporosis patients were classified as condition shown in Table 1 based on the bone fracture risk factors present, as in Non-patent Reference 13, and compared. High-risk patients were defined as having all three factors involving age, prevalent vertebral fractures, and bone density or bone atrophy; low-risk patients were defined as other than the above.
# [2] = tested on: high-risk patients diagnosed with primary osteoporosis; experiment: Lumbar spine bone density by DXA, Working Example 2; assay type: in vivo, human; details: 200 units once a week; for Change in bone density (%): patients taking glucocorticoid
# Method: For the bone density of the lumbar spine, the density of the second to fourth lumbar spine was measured at the start and every 24 weeks thereafter using dual-energy x-ray absorptiometry (DXA).
# [3] = tested on: high-risk patients diagnosed with primary osteoporosis; experiment: CT geometry of the femur (multislice CT), Working Example 2; assay type: in vivo, human; details: 200 units once a week
# Method: For the CT geometry, the proximal part of the femur was measured at the start and after 48 and 72 weeks using multislice CT scan.
# The effects of the test drug on three parts of the femur (neck of the femur, trochanter, and shaft of the femur) were studied using ordinary CT scans.
# [4] = in vivo
# Method: The Lumbar spine bone mineral density and occurrence of bone fractures were checked as bone assessments. For the Lumbar spine bone mineral density, the bone density of the second to fourth lumbar spine was measured at the start and every six months thereafter using dual-energy x-ray absorptiometry (DXA). For the frequency of bone fractures, x-rays were taken from the front and side of the fourth thoracic to the fifth lumbar spine at the start and every six months thereafter, and new vertebral fractures were assessed by comparison of the roentgen films at the start and at each point in time thereafter using the method of Genant et al. (Non-patent Reference 14) as a reference. In locations other than the vertebrae, fractures were evaluated by checking by roentgen films. Blood samples were also taken from all patients at the beginning and during administration, and the general laboratory test values, including the calcium concentration, were measured. The administration period in high-risk patients (DXA and new vertebral fractures were assessed collectively at the center; fractures of other than vertebrae were assessed by the investigator based on the roentgen films) was 85.1±20.8 weeks in the 5 unit group and 83.7±19.8 weeks in the 100 unit group. […] The administration period in low-risk patients was 72.7±19.4 weeks in the 5 unit group and 88.3±21.3 weeks in the 100 unit group.
# [5] = in vivo; remark: listed apart in the source
# Method: The serum calcium was measured at the start, after 12 weeks, after 24 weeks, after 48 weeks, and after 72 weeks. Serum calcium standard value: 8.4 to 10.4 mg/dL. The standard concomitant drug (610 mg of calcium, 400 IU of vitamin D3, and 30 mg of magnesium) was taken once a day after dinner from the time of consent to the end of the trial.
# [6] = in vivo; remark: listed apart in the source
# From the text: The incidence of adverse events was studied after administering the test drug to the a group of osteoporosis patients having normal renal function, a group of osteoporosis patients having mild renal dysfunction, and a group of osteoporosis patients having moderate renal dysfunction.
# [7] = high-risk patients, 5 units once a week, After 26 W
# [8] = high-risk patients, 5 units once a week, After 52 W
# [9] = high-risk patients, 5 units once a week, After 78 W
# [10] = high-risk patients, 5 units once a week, After 104 W
# [11] = high-risk patients, 5 units once a week, After 130 W
# [12] = high-risk patients, 100 units once a week, After 26 W
# [13] = high-risk patients, 100 units once a week, After 52 W
# [14] = high-risk patients, 100 units once a week, After 78 W
# [15] = high-risk patients, 100 units once a week, After 104 W
# [16] = high-risk patients, 100 units once a week, After 130 W
# [17] = low-risk patients, 5 units once a week, After 26 W
# [18] = low-risk patients, 5 units once a week, After 52 W
# [19] = low-risk patients, 5 units once a week, After 78 W
# [20] = low-risk patients, 5 units once a week, After 104 W
# [21] = low-risk patients, 5 units once a week, After 130 W
# [22] = low-risk patients, 100 units once a week, After 26 W
# [23] = low-risk patients, 100 units once a week, After 52 W
# [24] = low-risk patients, 100 units once a week, After 78 W
# [25] = low-risk patients, 100 units once a week, After 104 W
# [26] = low-risk patients, 100 units once a week, After 130 W
# [27] = high-risk patients, 5 units once a week
# [28] = high-risk patients, 100 units once a week
# [29] = low-risk patients, 5 units once a week
# [30] = low-risk patients, 100 units once a week
substance,measurement,setting,value
teriparatide acetate,Incidence (%),[1]; [7],9.5%
same,No. of fractures,[1]; [7],8
same,No. with fractures,[1]; [7],6
same,Incidence (%),[1]; [8],11.1%
same,No. of fractures,[1]; [8],9
same,No. with fractures,[1]; [8],7
same,Incidence (%),[1]; [9],7.0%
same,No. of fractures,[1]; [9],4
same,No. with fractures,[1]; [9],4
same,Incidence (%),[1]; [10],2.9%
same,No. of fractures,[1]; [10],1
same,No. with fractures,[1]; [10],1
same,No. of fractures,[1]; [11],0
same,No. with fractures,[1]; [11],0
same,Incidence (%),[1]; [12],2.0%
same,No. of fractures,[1]; [12],1
same,No. with fractures,[1]; [12],1
same,Incidence (%),[1]; [13],2.0%
same,No. of fractures,[1]; [13],1
same,No. with fractures,[1]; [13],1
same,Incidence (%),[1]; [14],2.2%
same,No. of fractures,[1]; [14],1
same,No. with fractures,[1]; [14],1
same,No. of fractures,[1]; [15],0
same,No. with fractures,[1]; [15],0
same,No. of fractures,[1]; [16],0
same,No. with fractures,[1]; [16],0
same,No. of fractures,[1]; [17],0
same,No. with fractures,[1]; [17],0
same,Incidence (%),[1]; [18],4.8%
same,No. of fractures,[1]; [18],1
same,No. with fractures,[1]; [18],1
same,No. of fractures,[1]; [19],0
same,No. with fractures,[1]; [19],0
same,No. of fractures,[1]; [20],0
same,No. with fractures,[1]; [20],0
same,No. of fractures,[1]; [21],0
same,No. with fractures,[1]; [21],0
same,Incidence (%),[1]; [22],8.3%
same,No. of fractures,[1]; [22],2
same,No. with fractures,[1]; [22],1
same,No. of fractures,[1]; [23],0
same,No. with fractures,[1]; [23],0
same,No. of fractures,[1]; [24],0
same,No. with fractures,[1]; [24],0
same,No. of fractures,[1]; [25],0
same,No. with fractures,[1]; [25],0
same,No. of fractures,[1]; [26],0
same,No. with fractures,[1]; [26],0
same,No. of vertebral fractures,[1]; [27],22
same,No. with fractures (persons),[1]; [27],13 persons
same,No. of vertebral fractures,[1]; [28],3
same,No. with fractures (persons),[1]; [28],3 persons
same,No. of vertebral fractures,[1]; [29],1
same,No. with fractures (persons),[1]; [29],1 persons
same,No. of vertebral fractures,[1]; [30],2
same,No. with fractures (persons),[1]; [30],1 persons
same,Percentage change in bone density (%),"[2]; 24 W, history of Alfacalcidol",3.11%
same,Percentage change in bone density (%),"[2]; 24 W, history of Calcitriol",3.50%
same,Percentage change in bone density (%),"[2]; 24 W, history of Calcium L-aspartate",3.78%
same,Percentage change in bone density (%),"[2]; 24 W, history of Calcium lactate",1.96%
same,Percentage change in bone density (%),"[2]; 24 W, history of Elcatonin",3.95%
same,Percentage change in bone density (%),"[2]; 24 W, history of Menatetrenone",2.70%
same,Percentage change in bone density (%),"[2]; 24 W, history of Raloxifene hydrochloride",1.77%
same,Change in bone density (%),[2]; 24 W,3.50%
same,Percentage change in bone density (%),"[2]; 48 W, history of Alfacalcidol",5.47%
same,Percentage change in bone density (%),"[2]; 48 W, history of Calcitriol",4.40%
same,Percentage change in bone density (%),"[2]; 48 W, history of Calcium L-aspartate",6.16%
same,Percentage change in bone density (%),"[2]; 48 W, history of Calcium lactate",3.45%
same,Percentage change in bone density (%),"[2]; 48 W, history of Elcatonin",3.59%
same,Percentage change in bone density (%),"[2]; 48 W, history of Menatetrenone",3.04%
same,Percentage change in bone density (%),"[2]; 48 W, history of Raloxifene hydrochloride",4.96%
same,Change in bone density (%),[2]; 48 W,5.97%
same,Percentage change in bone density (%),"[2]; 72 W, history of Alfacalcidol",6.47%
same,Percentage change in bone density (%),"[2]; 72 W, history of Calcitriol",6.38%
same,Percentage change in bone density (%),"[2]; 72 W, history of Calcium L-aspartate",5.85%
same,Percentage change in bone density (%),"[2]; 72 W, history of Calcium lactate",4.93%
same,Percentage change in bone density (%),"[2]; 72 W, history of Elcatonin",5.36%
same,Percentage change in bone density (%),"[2]; 72 W, history of Menatetrenone",4.32%
same,Percentage change in bone density (%),"[2]; 72 W, history of Raloxifene hydrochloride",4.59%
same,Change in bone density (%),[2]; 72 W,6.82%
same,"Volume bone mineral density (cortical bone) [vBMD cortical], change from baseline after 48 weeks (%)",[3]; Neck of femur,−0.77%
same,"Volume bone mineral density (total) [vBMD total], change from baseline after 48 weeks (%)",[3]; Neck of femur,0.92%
same,"Volume bone mineral density (total) [vBMD total], change from baseline after 72 weeks (%)",[3]; Neck of femur,0.15%
same,"Volume bone mineral density (cortical bone) [vBMD cortical], change from baseline after 48 weeks (%)",[3]; Shaft of femur,0.59%
same,"Volume bone mineral density (cortical bone) [vBMD cortical], change from baseline after 72 weeks (%)",[3]; Shaft of femur,0.18%
same,"Maximum section modulus (SM (Z min)), change from baseline after 72 weeks (%)",[3]; Trochanter,3.20%
same,"Volume bone mineral density (cortical bone) [vBMD cortical], change from baseline after 48 weeks (%)",[3]; Trochanter,−0.49%
same,"Volume bone mineral density (total) [vBMD total], change from baseline after 72 weeks (%)",[3]; Trochanter,0.95%
same,Hypercalcemia,[4],did not cause hypercalcemia at either dose
same,Tendency for the serum calcium to rise,[4],no tendency for the serum calcium to rise was seen
same,"Corrected serum calcium, Max",[5],10.0 mg/dL
same,Manifestation of hypercalcemia or hypercalciuria,[5],No manifestation of hypercalcemia or hypercalciuria was found
same,Patients with serum calcium exceeding 11.0 mg/mL,[5],not even one patient
same,Safety in terms of the serum calcium across renal function groups,[5],equivalent safety in terms of the serum calcium in all groups
same,Adverse events: No (%),[6],4.4%
same,"Adverse events: No, No. of cases",[6],2
same,Adverse events: Point estimate of the difference,[6],2.0
same,"Adverse events: Yes, No. of cases",[6],65
